Data reported in US9376470B2, “Polypeptide having angiogenesis-inducing activity and antibacterial activity, and use thereof for medical purposes” (FunPep Inc., priority 2008, dated 2016).
Peptide text beside a SMILES is read from it.

Tests used:
Assay type in all cases: cell-based
[1] = test system: Pseudomonas aeruginosa ATCC27853; test: Antibacterial activity, ATP assay (BacTiter-Glo); conditions: Table 4-1; ATP assay concentration: peptides 10, TOB 1.0, CPFX 1.0, OX 0.5, MEPM 1.0 μg/ml
Description: (§1) The antibacterial activity of the polypeptides was measured using an ATP assay method. That is, using BacTiter-Glo Microbial Cell Viability Assay kit available from PROMEGA, the antibacterial activity of the peptides was evaluated from the viability of bacteria. […] With respect to the strains, Staphylococcus aureus ATCC29213 (S. aureus ATCC29213) as Gram-positive bacteria, or, alternatively, Pseudomonas aeruginosa (P. aeruginosa ATCC27853) as Gram-negative bacteria, was used. The bacteria were cultured in media for 3 to 4 hours, and thereafter absorbances at A600 were measured. Bacterial suspensions were diluted with Mueller-Hinton broth (MHB) according to McFarland #0.5. Each strain was added so as to attain about 0.5−1×10^5 CFU/mL (final concentration) in terms of Escherichia coli. […] A solution to which the peptides were not added was considered as a negative control, and a solution to which tobramycin (TOB) was added was considered as a positive control. […] Relative values were calculated by comparison with the negative control, and these values were regarded as the viability. ATP (%) of the antibacterial activity was measured in the same manner as mentioned above, and the “minimum inhibitory concentration (MIC)” was measured as follows. MIC is the lowest concentration of an agent that may inhibit the growth of a bacterium. MIC is used as a parameter for the efficacy of an antibacterial agent, for the strength of bacterial sensitivity, or the like. The bacteria can grow (proliferate) when the concentration is not higher than MIC, and cannot grow when the concentration is higher than MIC. Its measurement is carried out according to a method defined as a standard method by Japanese Society of Chemotherapy or CLINICAL AND LABORATORY […] (CLSI), but, in this Example, its measurement was carried out by a broth microdilution method in accordance with “M100-S17/M7-A7” (Performance Standards for Antimicrobial Susceptibility Testing; Seventeenth Informational Supplement, Vol. 27 No. 1) published by CLSI on January, 2007. That is, sensitivity test of agents was carried out using a microtiter plate or test tubes. With respect to each strain, Escherichia coli: ATCC 25922 (Escherichia coli ATCC 25922), Pseudomonas aeruginosa: ATCC 27853 (Pseudomonas aeruginosa ATCC 27853), Staphylococcus aureus: ATCC29213 (Staphylococcus aureus ATCC29213), Klebsiella pneumoniae: JCM 1662 (Klebsiella pneumoniae JCM 1662), enterobacteria (1): JCM 1232 (Enterobacter cloacae JCM 1232), enterobacteria (2): JCM 1235 (Enterobacter aerogenes JCM 1235), and Staphylococcus epidermidis: JCM 2414 (Staphylococcus epidermidis JCM 2414), were used. […] As the concentrations of the agents in ATP assay, the concentrations as described in the Tables were used.

[2] = test system: Enterobacteria (2): Enterobacter aerogenes JCM 1235; test: Antibacterial activity, ATP assay (BacTiter-Glo); conditions: ATP assay concentration: peptides 10, TOB 4.0, CPFX 1.0, OX 4.0, MEPM 8.0 μg/ml
Description: (§2) That is, using BacTiter-Glo Microbial Cell Viability Assay kit available from PROMEGA, the antibacterial activity of the peptides was evaluated from the viability of bacteria. […] With respect to the strains, Staphylococcus aureus ATCC29213 (S. aureus ATCC29213) as Gram-positive bacteria, or, alternatively, Pseudomonas aeruginosa (P. aeruginosa ATCC27853) as Gram-negative bacteria, was used. The bacteria were cultured in media for 3 to 4 hours, and thereafter absorbances at A600 were measured. Bacterial suspensions were diluted with Mueller-Hinton broth (MHB) according to McFarland #0.5. Each strain was added so as to attain about 0.5−1×10^5 CFU/mL (final concentration) in terms of Escherichia coli. […] A solution to which the peptides were not added was considered as a negative control, and a solution to which tobramycin (TOB) was added was considered as a positive control. […] Relative values were calculated by comparison with the negative control, and these values were regarded as the viability. […] ATP (%) of the antibacterial activity was measured in the same manner as mentioned above, and the “minimum inhibitory concentration (MIC)” was measured as follows. MIC is the lowest concentration of an agent that may inhibit the growth of a bacterium. MIC is used as a parameter for the efficacy of an antibacterial agent, for the strength of bacterial sensitivity, or the like. The bacteria can grow (proliferate) when the concentration is not higher than MIC, and cannot grow when the concentration is higher than MIC. Its measurement is carried out according to a method defined as a standard method by Japanese Society of Chemotherapy or CLINICAL AND LABORATORY […] (CLSI), but, in this Example, its measurement was carried out by a broth microdilution method in accordance with “M100-S17/M7-A7” (Performance Standards for Antimicrobial Susceptibility Testing; Seventeenth Informational Supplement, Vol. 27 No. 1) published by CLSI on January, 2007. That is, sensitivity test of agents was carried out using a microtiter plate or test tubes. With respect to each strain, Escherichia coli: ATCC 25922 (Escherichia coli ATCC 25922), Pseudomonas aeruginosa: ATCC 27853 (Pseudomonas aeruginosa ATCC 27853), Staphylococcus aureus: ATCC29213 (Staphylococcus aureus ATCC29213), Klebsiella pneumoniae: JCM 1662 (Klebsiella pneumoniae JCM 1662), enterobacteria (1): JCM 1232 (Enterobacter cloacae JCM 1232), enterobacteria (2): JCM 1235 (Enterobacter aerogenes JCM 1235), and Staphylococcus epidermidis: JCM 2414 (Staphylococcus epidermidis JCM 2414), were used. […] As the concentrations of the agents in ATP assay, the concentrations as described in the Tables were used.

[3] = test system: Escherichia coli ATCC 25922; test: Antibacterial activity, ATP assay (BacTiter-Glo); conditions: ATP assay concentration: peptides 10, TOB 1.0, CPFX 0.015, OX 0.5, MEPM 0.1 μg/ml
Description: as §2

[4] = test system: Staphylococcus epidermidis JCM 2414; test: Antibacterial activity, ATP assay (BacTiter-Glo); conditions: ATP assay concentration: peptides 10, TOB 1.0, CPFX 0.5, OX 0.5, MEPM 0.125 μg/ml
Description: as §2

[5] = test system: Klebsiella pneumoniae JCM 1662; test: Antibacterial activity, ATP assay (BacTiter-Glo); conditions: ATP assay concentration: peptides 10, TOB 4.0, CPFX 1.0, OX 0.5, MEPM 8.0 μg/ml
Description: as §2

[6] = test system: human vascular endothelial cells and fibroblast cells (co-culture); test: Lumen formation with angiogenesis kit KZ-1000 (section 7); conditions: day 11
Description: Using an angiogenesis kit available from KURABO […] LTD. (Product No.: KZ-1000), lumen formation by the polypeptides was evaluated. Vascular endothelial growth factor A (VEGF-A) as a positive control, and polypeptide-free, unstimulated group as a negative control, were used.
Using a special medium for angiogenesis which was attached to the kit, each polypeptide was prepared such that the concentration thereof was respectively 0.5, 2.5 and 10 μg/mL. To a 24-well plate in which cells were plated (the cells were those obtained by co-culturing human vascular endothelial cells and fibroblast cells at an optimum concentration) which was attached to the kit, the special medium for angiogenesis containing each polypeptide was added, and the cells were cultured at 37° C. under 5% CO2. The medium was replaced with a medium containing the same additive on day 4, day 7 and day 9 of culture. On day 11 from the beginning of the culture, staining was performed using a kit for staining lumina (for CD31 antibody staining) according to the following procedure.
The media were removed, and washing was performed with Dulbecco's phosphate buffered saline (PBS(−)). Thereafter, ice-cooled 70% ethanol was added to the plate, and the cells were fixed. Each well was washed with a blocking solution (Dulbecco's phosphate buffered saline (PBS(−)) containing 1% BSA). To each well, 0.5 mL of the primary antibody for CD31 staining (mouse anti-human CD31 antibody) 4000-fold diluted with the blocking solution was added, and then the plate was incubated for 60 minutes at 37° C. After the completion of the incubation, each well was washed totally 3 times with 1 mL of the blocking solution. Then, 0.5 mL of the secondary antibody solution (goat anti-mouse IgG/alkaline phosphatase conjugate) 500-fold diluted with the blocking solution was added to each well. The plate was incubated for 60 minutes at 37° C., and thereafter each well was washed 3 times with 1 mL of distilled water. During that period, 2 tablets of BCIP/NBT were dissolved into distilled water, and the obtained solution was filtered through a filter having a pore size of […] to prepare a substrate solution. To each well, 0.5 mL of the prepared BCIP/NBT substrate solution was added, and the plate was incubated at 37° C. until the lumina turned to deep purple (typically for 5-10 minutes). After the completion of the incubation, each well was washed 3 times with 1 mL of distilled water. After washing, the washing solution was removed by aspiration, and the plate was left to stand and dry naturally. After drying, photographs of each well were taken under a microscope.
Each of the obtained images was quantified using an angiogenesis quantification software. The area and length of formed lumina observed in each visual field were measured on the basis of the scale of an angiogenesis quantification software available from KURABO […] LTD. (angiogenesis quantification software Ver 1.0), and evaluated on the basis of the ratio of the area or length of polypeptide-containing groups relative to the area or length of the negative control group.

[7] = test system: Staphylococcus aureus ATCC29213; test: Antibacterial activity, ATP assay (BacTiter-Glo); conditions: 10 μg/mL, ATP assay
Description: as §1

[8] = VEGF-A positive control, concentration not given

Q: `O=C(O)c1cn(C2CC2)c2cc(N3CCNCC3)c(F)cc2c1=O` [CPFX, ciprofloxacin, reference compound] was tested. Which “ATP (%) mean, Pseudomonas aeruginosa” value [1] did it give?
A: Its value is 2.3%.

Q: What about the “ATP (%) mean, Enterobacteria (2)” value [2] of the same molecule?
A: The value was 3.2%.

Q: What about the “ATP (%) mean, Escherichia coli” value [3] of the same molecule?
A: The value was 15.4%.

Q: What about the “ATP (%) mean, Staphylococcus epidermidis” value [4] of the same molecule?
A: Its value is 7.3%.

Q: And the “ATP (%) mean, Klebsiella pneumoniae” value [5]?
A: Its value is 8.2%.

Q: What does the source list for “Vascular endothelial growth factor A [VEGF-A]”?
A: The Area of Lumina (relative value, negative control as 100) [6, 8]: 189.2; The Length of Lumina (relative value, negative control as 100) [6, 8]: 169.8

Q: `CSCC[C@H](N)C(=O)N[C@@H](CCCNC(=N)N)C(=O)N[C@@H](CCCCN)C(=O)N[C@@H](CCCNC(=N)N)C(=O)N[C@@H](CC(C)C)C(=O)N[C@@H](CCCCN)C(=O)N[C@@H](CCCNC(=N)N)C(=O)N[C@@H](CCCCN)C(=O)N[C@@H](CC(C)C)C(=O)N[C@@H](CCCNC(=N)N)C(=O)N[C@@H](CC(C)C)C(=O)N[C@@H](Cc1c[nH]c2ccccc12)C(=O)N[C@@H](Cc1c[nH]cn1)C(=O)N[C@@H](CCCNC(=N)N)C(=O)N[C@@H](CCCCN)C(=O)N[C@@H](CCCNC(=N)N)C(=O)N[C@@H](Cc1ccc(O)cc1)C(=O)N[C@@H](CCCCN)C(N)=O` [SR-6] (H-MRKRLKRKLRLWHRKRYK-NH2; N-terminus assumed) was tested. Which “The Area of Lumina (relative value, negative control as 100)” value ([6]; polypeptide 0.5 μg/mL) did it give?
A: The value was 97.3.

Q: And the “The Length of Lumina (relative value, negative control as 100)” value ([6]; polypeptide 0.5 μg/mL)?
A: The value was 98.4.

Q: What about the “The Area of Lumina (relative value, negative control as 100)” value ([6]; polypeptide 10 μg/mL) of the same molecule?
A: Its value is 98.6.

Q: And the “The Length of Lumina (relative value, negative control as 100)” value ([6]; polypeptide 10 μg/mL)?
A: Its value is 96.6.

Q: What about the “antibacterial activity against Staphylococcus aureus compared with AG30-5C” value [7] of the same molecule?
A: The value was “higher antibacterial activity against Staphylococcus aureus than AG30-5C”.
